Measurements: BindingDB's records for doi:10.1021/jm00064a006 (Eli Lilly, 1993)

Experiment: The antagonist activity measured as inhibition of LTB4 response in aggregation of neutrophils

IC50 [nM] | Structure (SMILES)
513 | CCCCCCCCCCOc1ccc2c(=O)c3cc(C(=O)O)ccc3oc2c1CCC(=O)O [5-(2-Carboxy-ethyl)-6-decyloxy-9-oxo-9H-xanthene-2-carboxylic acid]
133 | COc1ccc(/C=C/CCCCOc2ccc3c(=O)c4cc(C(=O)O)ccc4oc3c2CCC(=O)O)cc1 [LY-210073]
